# Assay results: patent publication US9149038B2, “4-amino-6-(heterocyclic)picolinates and 6-amino-2-(heterocyclic)pyrimidine-4-carboxylates and their use as herbicides” (Dow AgroSciences LLC, priority 2013, dated 2015)
# Like-named read-outs stand apart in the source and are kept apart here.
# System: Wheat and Barley and weed species
# Assay: Post-Emergent Test III: postemergent herbicidal activity in wheat and barley, visual rating after 21 d and probit GR20/GR50/GR80/GR90 (Tables 9-13)
# Assay type: in vivo
# Settings: for GR20 HORVS / GR20 TRZAS: growth reduction of 20%; for pest or weed control at 17.5 g/ha / pest or weed control at 35 g/ha / pest or weed control at 70 g/ha: post-emergence, 504 h; for Visual Growth Reduction (%) 21 Days After Application KCHSC / GR50 KCHSC / GR80 KCHSC / GR90 KCHSC: KCHSC kochia (Kochia scoparia)
# Summary of the method: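 Greenhouse plants (~18/17 °C, 14 h photoperiod) at second–third true leaf stage sprayed at 187 L/ha with a high rate and ½× to 1/16× serial dilutions. Visual injury 0–100% versus solvent-blank controls scored at 21 d; GR20, GR50, GR80 and GR90 derived by probit analysis across rates.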
# [1] = ALOMY black-grass (Alopecurus myosuroides), growth reduction of 50%, probit analysis
# [2] = ALOMY black-grass (Alopecurus myosuroides), growth reduction of 80%, probit analysis
# [3] = ALOMY black-grass (Alopecurus myosuroides), growth reduction of 90%, probit analysis
# [4] = APESV bentgrass (Apera spica-venti), growth reduction of 50%, probit analysis
# [5] = APESV bentgrass (Apera spica-venti), growth reduction of 80%, probit analysis
# [6] = APESV bentgrass (Apera spica-venti), growth reduction of 90%, probit analysis
# [7] = HORVS barley, spring (crop), probit analysis
# [8] = Hordeum vulgare, HORVS barley, spring (crop), 17.5 g ai/ha, read-out: Visual Growth Reduction (%) 21 Days After Application HORVS
# [9] = Hordeum vulgare, HORVS barley, spring (crop), 35 g ai/ha, read-out: Visual Growth Reduction (%) 21 Days After Application HORVS
# [10] = Hordeum vulgare, HORVS barley, spring (crop), 70 g ai/ha, read-out: Visual Growth Reduction (%) 21 Days After Application HORVS
# [11] = growth reduction of 50%, probit analysis
# [12] = growth reduction of 80%, probit analysis
# [13] = growth reduction of 90%, probit analysis
# [14] = LOLSS ryegrass, growth reduction of 50%, probit analysis
# [15] = LOLSS ryegrass, growth reduction of 80%, probit analysis
# [16] = LOLSS ryegrass, growth reduction of 90%, probit analysis
# [17] = SETVI green foxtail (Setaria viridis), growth reduction of 50%, probit analysis
# [18] = SETVI green foxtail (Setaria viridis), growth reduction of 80%, probit analysis
# [19] = SETVI green foxtail (Setaria viridis), growth reduction of 90%, probit analysis
# [20] = TRZAS wheat, spring (crop), probit analysis
# [21] = Triticum aestivum, TRZAS wheat, spring (crop), 17.5 g ai/ha, read-out: Visual Growth Reduction (%) 21 Days After Application TRZAS
# [22] = Triticum aestivum, TRZAS wheat, spring (crop), 35 g ai/ha, read-out: Visual Growth Reduction (%) 21 Days After Application TRZAS
# [23] = Triticum aestivum, TRZAS wheat, spring (crop), 70 g ai/ha, read-out: Visual Growth Reduction (%) 21 Days After Application TRZAS
# [24] = ALOMY black-grass (Alopecurus myosuroides), 17.5 g ai/ha, read-out: Visual Growth Reduction (%) 21 Days After Application ALOMY
# [25] = ALOMY black-grass (Alopecurus myosuroides), 35 g ai/ha, read-out: Visual Growth Reduction (%) 21 Days After Application ALOMY
# [26] = ALOMY black-grass (Alopecurus myosuroides), 70 g ai/ha, read-out: Visual Growth Reduction (%) 21 Days After Application ALOMY
# [27] = APESV bentgrass (Apera spica-venti), 17.5 g ai/ha, read-out: Visual Growth Reduction (%) 21 Days After Application APESV
# [28] = APESV bentgrass (Apera spica-venti), 35 g ai/ha, read-out: Visual Growth Reduction (%) 21 Days After Application APESV
# [29] = APESV bentgrass (Apera spica-venti), 70 g ai/ha, read-out: Visual Growth Reduction (%) 21 Days After Application APESV
# [30] = LOLSS ryegrass, 17.5 g ai/ha, read-out: Visual Growth Reduction (%) 21 Days After Application LOLSS
# [31] = LOLSS ryegrass, 35 g ai/ha, read-out: Visual Growth Reduction (%) 21 Days After Application LOLSS
# [32] = LOLSS ryegrass, 70 g ai/ha, read-out: Visual Growth Reduction (%) 21 Days After Application LOLSS
# [33] = SETVI green foxtail (Setaria viridis), 17.5 g ai/ha, read-out: Visual Growth Reduction (%) 21 Days After Application SETVI
# [34] = SETVI green foxtail (Setaria viridis), 35 g ai/ha, read-out: Visual Growth Reduction (%) 21 Days After Application SETVI
# [35] = SETVI green foxtail (Setaria viridis), 70 g ai/ha, read-out: Visual Growth Reduction (%) 21 Days After Application SETVI
structure (smiles),measurement,setting,value
COC(=O)c1nc(-c2ccc3c(c2)OC(C)(C)O3)c(F)c(N)c1Cl [Compound 8],GR50 ALOMY,[1],>70 g ai/ha
same,GR80 ALOMY,[2],>70 g ai/ha
same,GR90 ALOMY,[3],>70 g ai/ha
same,GR50 APESV,[4],22 g ai/ha
same,GR80 APESV,[5],36 g ai/ha
same,GR90 APESV,[6],46 g ai/ha
same,GR20 HORVS,[7],7 g ai/ha
same,pest or weed control at 17.5 g/ha,[8],30 to 44%
same,pest or weed control at 35 g/ha,[9],60 to 74%
same,pest or weed control at 70 g/ha,[10],60 to 74%
same,Visual Growth Reduction (%) 21 Days After Application KCHSC,17.5 g ai/ha,E (45-59)
same,Visual Growth Reduction (%) 21 Days After Application KCHSC,35 g ai/ha,D (60-74)
same,Visual Growth Reduction (%) 21 Days After Application KCHSC,70 g ai/ha,D (60-74)
same,GR50 KCHSC,[11],21 g ai/ha
same,GR80 KCHSC,[12],>70 g ai/ha
same,GR90 KCHSC,[13],>70 g ai/ha
same,GR50 LOLSS,[14],>70 g ai/ha
same,GR80 LOLSS,[15],>70 g ai/ha
same,GR90 LOLSS,[16],>70 g ai/ha
same,GR50 SETVI,[17],11 g ai/ha
same,GR80 SETVI,[18],72 g ai/ha
same,GR90 SETVI,[19],>70 g ai/ha
same,GR20 TRZAS,[20],6 g ai/ha
same,pest or weed control at 17.5 g/ha,[21],30 to 44%
same,pest or weed control at 35 g/ha,[22],60 to 74%
same,pest or weed control at 70 g/ha,[23],60 to 74%
same,pest or weed control at 17.5 g/ha,[24],0 to 29%
same,pest or weed control at 35 g/ha,[25],30 to 44%
same,pest or weed control at 70 g/ha,[26],45 to 59%
same,pest or weed control at 17.5 g/ha,[27],0 to 29%
same,pest or weed control at 35 g/ha,[28],85 to 94%
same,pest or weed control at 70 g/ha,[29],85 to 94%
same,pest or weed control at 17.5 g/ha,[30],0 to 29%
same,pest or weed control at 35 g/ha,[31],0 to 29%
same,pest or weed control at 70 g/ha,[32],30 to 44%
same,pest or weed control at 17.5 g/ha,[33],60 to 74%
same,pest or weed control at 35 g/ha,[34],75 to 84%
same,pest or weed control at 70 g/ha,[35],75 to 84%
Nc1c(F)c(-c2ccc3c(c2F)OC(F)(F)O3)nc(C(=O)O)c1Cl [Compound 11],GR50 ALOMY,[1],41 g ai/ha
same,GR80 ALOMY,[2],>70 g ai/ha
same,GR90 ALOMY,[3],>70 g ai/ha
same,GR50 APESV,[4],25 g ai/ha
same,GR80 APESV,[5],52 g ai/ha
same,GR90 APESV,[6],>70 g ai/ha
same,GR20 HORVS,[7],3 g ai/ha
same,pest or weed control at 17.5 g/ha,[8],60 to 74%
same,pest or weed control at 35 g/ha,[9],60 to 74%
same,pest or weed control at 70 g/ha,[10],85 to 94%
same,GR50 LOLSS,[14],31 g ai/ha
same,GR80 LOLSS,[15],62 g ai/ha
same,GR90 LOLSS,[16],>70 g ai/ha
same,Visual Growth Reduction (%) 21 Days After Application MATCH,"MATCH wild chamomile (Matricaria recutita L.), 17.5 g ai/ha",G (0-29)
same,Visual Growth Reduction (%) 21 Days After Application MATCH,"MATCH wild chamomile (Matricaria recutita L.), 35 g ai/ha",F (30-44)
same,Visual Growth Reduction (%) 21 Days After Application MATCH,"MATCH wild chamomile (Matricaria recutita L.), 70 g ai/ha",E (45-59)
same,GR50 MATCH,"MATCH wild chamomile (Matricaria recutita L.), growth reduction of 50%, probit analysis",65 g ai/ha
same,GR80 MATCH,"MATCH wild chamomile (Matricaria recutita L.), growth reduction of 80%, probit analysis",>70 g ai/ha
same,GR90 MATCH,"MATCH wild chamomile (Matricaria recutita L.), growth reduction of 90%, probit analysis",>70 g ai/ha
same,GR50 SETVI,[17],18 g ai/ha
same,GR80 SETVI,[18],37 g ai/ha
same,GR90 SETVI,[19],53 g ai/ha
same,GR20 TRZAS,[20],0.12 g ai/ha
same,pest or weed control at 17.5 g/ha,[21],75 to 84%
same,pest or weed control at 35 g/ha,[22],85 to 94%
same,pest or weed control at 70 g/ha,[23],85 to 94%
same,Visual Growth Reduction (%) 21 Days After Application VERPE,"VERPE bird's-eye speedwell (veronica persica), 17.5 g ai/ha",E (45-59)
same,Visual Growth Reduction (%) 21 Days After Application VERPE,"VERPE bird's-eye speedwell (veronica persica), 35 g ai/ha",D (60-74)
same,Visual Growth Reduction (%) 21 Days After Application VERPE,"VERPE bird's-eye speedwell (veronica persica), 70 g ai/ha",B (85-94)
same,GR50 VERPE,"VERPE bird's-eye speedwell (veronica persica), growth reduction of 50%, probit analysis",17 g ai/ha
same,GR80 VERPE,"VERPE bird's-eye speedwell (veronica persica), growth reduction of 80%, probit analysis",41 g ai/ha
same,GR90 VERPE,"VERPE bird's-eye speedwell (veronica persica), growth reduction of 90%, probit analysis",65 g ai/ha
same,pest or weed control at 17.5 g/ha,[24],30 to 44%
same,pest or weed control at 35 g/ha,[25],45 to 59%
same,pest or weed control at 70 g/ha,[26],60 to 74%
same,pest or weed control at 17.5 g/ha,[27],30 to 44%
same,pest or weed control at 35 g/ha,[28],60 to 74%
same,pest or weed control at 70 g/ha,[29],85 to 94%
same,pest or weed control at 17.5 g/ha,[30],45 to 59%
same,pest or weed control at 35 g/ha,[31],60 to 74%
same,pest or weed control at 70 g/ha,[32],75 to 84%
same,pest or weed control at 17.5 g/ha,[33],45 to 59%
same,pest or weed control at 35 g/ha,[34],75 to 84%
same,pest or weed control at 70 g/ha,[35],85 to 94%
COC(=O)c1nc(-c2cc3c(cc2F)OC(F)(F)O3)c(F)c(N)c1Cl [Compound 9],GR50 ALOMY,[1],13 g ai/ha
same,GR80 ALOMY,[2],26 g ai/ha
same,GR90 ALOMY,[3],38 g ai/ha
same,GR50 APESV,[4],30 g ai/ha
same,GR80 APESV,[5],61 g ai/ha
same,GR90 APESV,[6],89 g ai/ha
same,GR20 HORVS,[7],3 g ai/ha
same,pest or weed control at 17.5 g/ha,[8],60 to 74%
same,pest or weed control at 35 g/ha,[9],85 to 94%
same,pest or weed control at 70 g/ha,[10],85 to 94%
same,Visual Growth Reduction (%) 21 Days After Application KCHSC,17.5 g ai/ha,G (0-29)
same,Visual Growth Reduction (%) 21 Days After Application KCHSC,35 g ai/ha,G (0-29)
same,Visual Growth Reduction (%) 21 Days After Application KCHSC,70 g ai/ha,G (0-29)
same,GR50 KCHSC,[11],>70 g ai/ha
same,GR80 KCHSC,[12],>70 g ai/ha
same,GR90 KCHSC,[13],>70 g ai/ha
same,GR50 LOLSS,[14],70 g ai/ha
same,GR80 LOLSS,[15],>70 g ai/ha
same,GR90 LOLSS,[16],>70 g ai/ha
same,GR50 SETVI,[17],21 g ai/ha
same,GR80 SETVI,[18],46 g ai/ha
same,GR90 SETVI,[19],71 g ai/ha
same,GR20 TRZAS,[20],4 g ai/ha
same,pest or weed control at 17.5 g/ha,[21],60 to 74%
same,pest or weed control at 35 g/ha,[22],75 to 84%
same,pest or weed control at 70 g/ha,[23],75 to 84%
same,pest or weed control at 17.5 g/ha,[24],75 to 84%
same,pest or weed control at 35 g/ha,[25],85 to 94%
same,pest or weed control at 70 g/ha,[26],85 to 94%
same,pest or weed control at 17.5 g/ha,[27],0 to 29%
same,pest or weed control at 35 g/ha,[28],60 to 74%
same,pest or weed control at 70 g/ha,[29],75 to 84%
same,pest or weed control at 17.5 g/ha,[30],0 to 29%
same,pest or weed control at 35 g/ha,[31],0 to 29%
same,pest or weed control at 70 g/ha,[32],45 to 59%
same,pest or weed control at 17.5 g/ha,[33],45 to 59%
same,pest or weed control at 35 g/ha,[34],75 to 84%
same,pest or weed control at 70 g/ha,[35],85 to 94%
